From patent US9725465B2, “Biaryl acetamide compounds and methods of use thereof” (Ambit Biosciences Corporation, priority 2013, dated 2017)

Key:
[1] = target: FLT3 kinase (Homo sapiens (Human), UniProt P36888); assay: Competition binding assay (Kd), FLT3; conditions: competition binding assay
[2] = target: KIT kinase (Homo sapiens (Human), UniProt P10721); assay: Competition binding assay (Kd), KIT; conditions: competition binding assay
Method in brief: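 Kinase, as T7 phage fusion or HEK-293-expressed DNA-tagged protein, competed off immobilised ligand beads by test compound (eleven-point threefold dilutions, from 100× DMSO stocks). Eluted kinase quantified by qPCR to derive Kd; DMSO used as control.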

[3] = target: FLT3-ITD (Homo sapiens (Human), UniProt P36888, INS600HVDFREYEYD); assay: pFLT3 MSD assay, Ba/F3 FLT3-ITD; assay type: cell-based; conditions: Ba/F3 FLT3-ITD cells, 2 hours, read-out: BaF3-FLT3-ITD pFlt3 IC50
FLT3-ITD, sequence (P36888 other isoform, or with tags, fused parts or gaps limits assumed, stated change not applied): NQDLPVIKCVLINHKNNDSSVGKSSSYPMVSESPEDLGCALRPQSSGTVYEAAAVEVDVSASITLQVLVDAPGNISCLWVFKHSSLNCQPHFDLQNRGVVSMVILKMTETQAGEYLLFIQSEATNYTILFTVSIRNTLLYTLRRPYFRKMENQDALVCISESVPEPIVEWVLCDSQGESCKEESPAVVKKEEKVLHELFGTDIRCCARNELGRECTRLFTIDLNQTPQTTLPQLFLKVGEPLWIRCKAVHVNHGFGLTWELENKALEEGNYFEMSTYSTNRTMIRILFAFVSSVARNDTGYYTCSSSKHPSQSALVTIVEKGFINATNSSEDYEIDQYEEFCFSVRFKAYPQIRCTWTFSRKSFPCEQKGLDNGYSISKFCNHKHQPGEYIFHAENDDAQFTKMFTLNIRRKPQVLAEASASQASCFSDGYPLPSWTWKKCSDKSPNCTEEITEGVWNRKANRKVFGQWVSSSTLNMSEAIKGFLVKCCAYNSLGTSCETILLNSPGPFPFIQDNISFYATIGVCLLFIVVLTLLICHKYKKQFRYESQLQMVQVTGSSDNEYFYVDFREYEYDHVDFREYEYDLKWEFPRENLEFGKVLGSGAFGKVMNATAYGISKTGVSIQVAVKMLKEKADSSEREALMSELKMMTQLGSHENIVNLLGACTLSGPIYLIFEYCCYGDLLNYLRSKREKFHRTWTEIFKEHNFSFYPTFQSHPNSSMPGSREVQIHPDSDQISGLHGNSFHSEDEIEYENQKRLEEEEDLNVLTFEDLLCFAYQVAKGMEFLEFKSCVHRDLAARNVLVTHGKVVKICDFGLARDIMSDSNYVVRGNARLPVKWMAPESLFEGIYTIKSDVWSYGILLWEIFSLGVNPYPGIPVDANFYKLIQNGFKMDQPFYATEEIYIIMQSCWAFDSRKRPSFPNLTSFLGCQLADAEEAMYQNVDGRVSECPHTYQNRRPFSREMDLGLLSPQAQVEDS

KIT kinase, sequence (P10721 26-976): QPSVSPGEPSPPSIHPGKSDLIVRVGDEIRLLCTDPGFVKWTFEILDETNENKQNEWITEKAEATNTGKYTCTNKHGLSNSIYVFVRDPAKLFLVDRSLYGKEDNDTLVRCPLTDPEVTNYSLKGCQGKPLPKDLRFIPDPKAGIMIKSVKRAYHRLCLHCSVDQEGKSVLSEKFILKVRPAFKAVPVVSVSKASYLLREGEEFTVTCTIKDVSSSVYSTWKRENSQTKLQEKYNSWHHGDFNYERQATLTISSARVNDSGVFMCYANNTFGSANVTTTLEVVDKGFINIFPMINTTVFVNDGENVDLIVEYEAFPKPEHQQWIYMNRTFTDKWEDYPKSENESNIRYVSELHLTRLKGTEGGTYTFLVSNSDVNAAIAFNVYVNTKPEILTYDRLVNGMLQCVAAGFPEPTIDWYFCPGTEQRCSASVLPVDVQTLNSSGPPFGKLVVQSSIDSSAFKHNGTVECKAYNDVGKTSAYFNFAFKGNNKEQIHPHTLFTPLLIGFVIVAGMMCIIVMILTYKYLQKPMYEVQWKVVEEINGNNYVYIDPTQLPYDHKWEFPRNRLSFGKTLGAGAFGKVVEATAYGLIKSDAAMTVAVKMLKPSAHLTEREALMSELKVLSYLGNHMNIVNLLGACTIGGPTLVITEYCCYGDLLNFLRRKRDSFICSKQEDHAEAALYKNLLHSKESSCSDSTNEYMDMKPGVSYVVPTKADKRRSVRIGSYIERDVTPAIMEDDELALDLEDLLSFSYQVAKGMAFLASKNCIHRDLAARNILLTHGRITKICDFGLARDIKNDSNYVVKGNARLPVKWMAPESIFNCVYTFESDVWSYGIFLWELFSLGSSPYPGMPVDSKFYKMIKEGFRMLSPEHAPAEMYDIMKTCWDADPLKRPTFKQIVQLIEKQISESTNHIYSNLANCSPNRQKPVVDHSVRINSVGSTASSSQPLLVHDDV
FLT3 kinase, sequence (P36888 27-993): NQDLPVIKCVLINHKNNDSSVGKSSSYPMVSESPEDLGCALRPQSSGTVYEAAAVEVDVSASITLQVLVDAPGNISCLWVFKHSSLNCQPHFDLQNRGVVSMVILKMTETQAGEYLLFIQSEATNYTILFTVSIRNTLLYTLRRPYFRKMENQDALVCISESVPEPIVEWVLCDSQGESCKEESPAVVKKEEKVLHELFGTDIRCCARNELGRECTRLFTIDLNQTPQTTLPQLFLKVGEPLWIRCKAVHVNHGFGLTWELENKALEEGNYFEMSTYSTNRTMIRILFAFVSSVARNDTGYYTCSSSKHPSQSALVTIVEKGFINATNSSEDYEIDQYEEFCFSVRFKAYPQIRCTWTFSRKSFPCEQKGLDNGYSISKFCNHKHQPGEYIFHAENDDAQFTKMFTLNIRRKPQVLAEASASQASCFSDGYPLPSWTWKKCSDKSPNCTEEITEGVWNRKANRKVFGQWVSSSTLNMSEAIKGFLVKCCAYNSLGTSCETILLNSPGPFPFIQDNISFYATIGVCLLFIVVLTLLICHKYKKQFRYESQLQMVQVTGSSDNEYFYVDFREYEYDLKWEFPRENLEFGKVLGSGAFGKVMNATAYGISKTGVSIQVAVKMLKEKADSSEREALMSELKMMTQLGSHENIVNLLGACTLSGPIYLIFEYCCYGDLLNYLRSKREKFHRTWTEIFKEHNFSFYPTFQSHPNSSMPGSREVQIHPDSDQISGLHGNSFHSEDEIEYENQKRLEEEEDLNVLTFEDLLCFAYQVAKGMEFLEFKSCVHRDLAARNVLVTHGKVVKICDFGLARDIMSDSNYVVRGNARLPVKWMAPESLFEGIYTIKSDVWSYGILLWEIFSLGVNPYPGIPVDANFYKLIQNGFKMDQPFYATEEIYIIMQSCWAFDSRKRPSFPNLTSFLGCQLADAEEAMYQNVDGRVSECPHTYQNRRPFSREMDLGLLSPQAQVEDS

| Compound | Kd [1] | Kd [2] | IC50 [3] |
| --- | --- | --- | --- |
| COc1cc2ncc(-c3ccc(CC(=O)Nc4cc(C(C)(C)C)nn4C)c(F)c3)nc2cc1OC [Example 139, N-(5-tert-butyl-2-methyl-pyrazol-3-yl)-2-[4-(6,7-dimethoxyquinoxalin-2-yl)-2-fluoro-phenyl]acetamide] | < 5 nM | < 5 nM | < 10 nM |
| COc1cc2ncc(-c3ccc(CC(=O)Nc4cc(C(C)(C)C)nn4-c4ccccc4)c(F)c3)nc2cc1OC [Example 140, N-(5-tert-butyl-2-phenyl-pyrazol-3-yl)-2-[4-(6,7-dimethoxyquinoxalin-2-yl)-2-fluoro-phenyl]acetamide] | < 5 nM | 5 to 20 nM | < 10 nM |
| COc1cc2ncc(-c3ccc(CC(=O)Nc4cc(C(C)(C)C(F)(F)F)on4)c(F)c3)c(N=[N+]=[N-])c2cc1OC [Example 141, 2-[4-(4-azido-6,7-dimethoxy-3-quinolyl)-2-fluoro-phenyl]-N-[5-(2,2,2-trifluoro-1,1-dimethyl-ethyl)isoxazol-3-yl]acetamide] | < 5 nM | 5 to 20 nM | < 10 nM |
| CCN1CC(Oc2cc3ncc(-c4ccc(CC(=O)Nc5cc(C6(C(F)(F)F)CC6)on5)c(F)c4)nc3cc2OC)C1 [Example 142, 2-[4-[6-(1-ethylazetidin-3-yl)oxy-7-methoxy-quinoxalin-2-yl]-2-fluoro-phenyl]-N-[5-[1-(trifluoro-methyl)cyclopropyl]isoxazol-3-yl]acetamide] | < 5 nM | < 5 nM | < 10 nM |
| COc1cc2ncc(-c3ccc(CC(=O)Nc4cc(C(C)(C)C(F)(F)F)on4)c(F)c3)c(N)c2cc1OC [Example 143, 2-[4-(4-amino-6,7-dimethoxy-3-quinolyl)-2-fluoro-phenyl]-N-[5-(2,2,2-trifluoro-1,1-dimethyl-ethyl)isoxazol-3-yl]acetamide] | < 5 nM | 5 to 20 nM | 10 to 20 nM |
| COc1cc2nc(-c3ccc(CC(=O)Nc4cc(C5(C(F)(F)F)CC5)on4)c(F)c3)cnc2cc1OC1COC1 [Example 144, 2-[2-fluoro-4-[7-methoxy-6-(oxetan-3-yloxy)quinoxalin-2-yl]phenyl]-N-[5-[1-(trifluoro-methyl)cyclopropyl]isoxazol-3-yl]acetamide] | < 5 nM | < 5 nM | < 10 nM |
| COc1cc2ncc(-c3ccc(CC(=O)Nc4cc(C(C)(C)C(F)(F)F)on4)c(F)c3)c(OC)c2cc1OC [Example 145, 2-[2-fluoro-4-(4,6,7-trimethoxy-3-quinolyl)phenyl]-N-[5-(2,2,2-trifluoro-1,1-dimethyl-ethyl)isoxazol-3-yl]acetamide] | 5 to 20 nM | > 50 nM | > 50 nM |
| COc1cc2nc(Cl)c(-c3ccc(CC(=O)Nc4cc(C5(C(F)(F)F)CC5)on4)c(F)c3)nc2cc1OC [Example 146, 2-[4-(3-chloro-6,7-dimethoxy-quinoxalin-2-yl)-2-fluoro-phenyl]-N-[5-[1-(trifluoromethyl)cyclo-propyl]isoxazol-3-yl]acetamide] | < 5 nM | < 5 nM | < 10 nM |
| COc1cc2nc(-c3ccc(CC(=O)Nc4cc(C(C)(C)C(F)(F)F)on4)c(F)c3)cnc2cc1OC1COC1 [Example 147, 2-[2-fluoro-4-[7-methoxy-6-(oxetan-3-yloxy)quinoxalin-2-yl]phenyl]-N-[5-(2,2,2-trifluoro-1,1-dimethyl-ethyl)isoxazol-3-yl]acetamide] | < 5 nM | < 5 nM | < 10 nM |

More lines, now with the values ahead:

| Kd [1] | Kd [2] | IC50 [3] | Compound |
| --- | --- | --- | --- |
| < 5 nM | 5 to 20 nM | < 10 nM | COc1cc2nc(-c3ccc(CC(=O)Nc4cc(C(C)(C)C(F)(F)F)on4)c(F)c3)cnc2cc1OC1CNC1 [Example 148, 2-[4-[6-(azetidin-3-yloxy)-7-methoxy-quinoxalin-2-yl]-2-fluoro-phenyl]-N-[5-(2,2,2-trifluoro-1,1-dimethyl-ethyl)isoxazol-3-yl]acetamide] |
| < 5 nM | < 5 nM | < 10 nM | CCN1CC(Oc2cc3ncc(-c4ccc(CC(=O)Nc5cc(C(C)(C)C(F)(F)F)on5)c(F)c4)nc3cc2OC)C1 [Example 149, 2-[4-[6-(1-ethylazetidin-3-yl)oxy-7-methoxy-quinoxalin-2-yl]-2-fluoro-phenyl]-N-[5-(2,2,2-trifluoro-1,1-dimethyl-ethyl)isoxazol-3-yl]acetamide] |
| < 5 nM | < 5 nM | < 10 nM | COc1cc2nc(-c3ccc(CC(=O)Nc4cc(C(C)(C)C(F)(F)F)on4)c(F)c3)cnc2cc1OC1CN(C)C1 [Example 150, 2-[2-fluoro-4-[7-methoxy-6-(1-methylazetidin-3-yl)oxy-quinoxalin-2-yl]phenyl]-N-[5-(2,2,2-trifluoro-1,1-dimethyl-ethyl)isoxazol-3-yl]acetamide] |
| < 5 nM | < 5 nM | < 10 nM | CC(C)(c1cc(NC(=O)Cc2ccc(-c3cnc4c(N)cccc4c3)cc2F)no1)C(F)(F)F [Example 151, 2-[4-(8-amino-3-quinolyl)-2-fluoro-phenyl]-N-[5-(2,2,2-trifluoro-1,1-dimethyl-ethyl)isoxazol-3-yl]acetamide] |
| < 5 nM | < 5 nM | < 10 nM | COc1cc2nc(O)c(-c3ccc(CC(=O)Nc4cc(C5(C(F)(F)F)CC5)on4)c(F)c3)nc2cc1OC [Example 152, 2-[4-(6,7-dimethoxy-3-hydroxy-quinoxalin-2-yl)-2-fluoro-phenyl]-N-[5-[1-(trifluoromethyl)cyclo-propyl]isoxazol-3-yl]acetamide] |
| < 5 nM | < 5 nM | < 10 nM | COc1cc2ncc(-c3ccc(CC(=O)Nc4cc(C(C)(C)C)n[nH]4)c(F)c3)nc2cc1OC [Example 153, N-(3-tert-butyl-1H-pyrazol-5-yl)-2-[4-(6,7-dimethoxyquinoxalin-2-yl)-2-fluoro-phenyl]acetamide] |
| < 5 nM | < 5 nM | < 10 nM | CN(C)C(=O)COc1cc2ncc(-c3ccc(CC(=O)Nc4cc(C5(C(F)(F)F)CC5)on4)c(F)c3)nc2cc1OCC(=O)N(C)C [Example 154, 2-[4-[6,7-bis[2-(dimethylamino)-2-oxo-ethoxy]quinoxalin-2-yl]-2-fluoro-phenyl]-N-[5-[1-(trifluoromethyl)cyclo-propyl]isoxazol-3-yl]acetamide] |
| < 5 nM | 5 to 20 nM | < 10 nM | COc1ccc2ncc(-c3ccc(CC(=O)Nc4cc(C5(C(F)(F)F)CC5)on4)c(F)c3)nc2n1 [Example 155, 2-[2-fluoro-4-(6-methoxypyrido[2,3-b]pyrazin-3-yl)phenyl]-N-[5-[1-(trifluoromethyl)cyclo-propyl]isoxazol-3-yl]acetamide OR 2-[2-fluoro-4-(6-methoxypyrido[2,3-b]pyrazin-2-yl)phenyl]-N-[5-[1-(trifluoromethyl)cyclo-propyl]isoxazol-3-yl]acetamide] |
| > 50 nM | > 50 nM | < 10 nM | COc1cc2ncc(-c3ccc(CC(=O)Nc4cc(C5(C(F)(F)F)CC5)on4)c(F)c3)nc2cc1OCc1ccccc1 [Example 156, 2-[4-(7-benzyloxy-6-methoxy-quinoxalin-2-yl)-2-fluoro-phenyl]-N-[5-[1-(trifluoromethyl)cyclo-propyl]isoxazol-3-yl]acetamide] |
